Series [1] relates to Colo-205 (Colon cancer). The series can be described thus: MTT assay, Colo-205. The format is cell-based. The note with it: Homo sapiens, COLO 205; MTT, 48 hrs; read-out: Colo-205 IC50. As for the experimental part:
(§1) A431 (Skin cancer), Colo-205 (Colon cancer), A549 (Lung cancer) cell lines were obtained from National Center for Cell science (NCCS), Pune, India. DMEM (Dulbeccos Modified Eagles Medium), MTT [3-(4,5-dimethylthiazol-2-yl)-2,5-diphenyl tetrazolium bromide], Trypsin, EDTA were purchased from Sigma Chemicals Co (St. Louis, Mo.), Fetal bovine serum were purchased from Arrow labs, 96 well flat bottom tissue culture plates were purchased from Tarson.
(§2) A431, Colo-205, A549 cell lines were grown as adherent cells in DMEM media supplemented with 10% fetal bovine serum, 100 μg/ml penicillin, 200 μg/ml streptomycin, 2 mM L-glutamine, and culture was maintained in a humidified atmosphere with 5% CO2. Stock solution of 10 mg/ml was prepared for test molecules in DMSO. From the stock, various dilutions were made with sterile water to get required concentration. A431, Colo-205, A549 cell lines were seeded at a density of 1×10^4 cells (cell number was determined by Trypan blue exclusion dye method) per each well in 100 μl of DMEM supplemented with 10% FBS. 12 hrs after seeding, above media was replaced with fresh DMEM supplemented with 10% FBS. Then, 10 μl sample from above stock solutions were added to each well in triplicates which gives final concentration of 100, 50, 25, 10 μg/well. The above cells were incubated for 48 hrs at 37° C. with 5% CO2. After 48 hrs incubation the above media was replaced with 100 μl of fresh DMEM with out FBS and to this 10 μl of MTT (5 mg dissolved in 1 ml of PBS) was added and incubated for 3 hrs at 37° C. with 5% CO2. After 3 hrs of incubation, the above media was removed with multi channel pipette, then 200 μl of DMSO was added to each well and incubated at 37° C. for 15 min. Finally, the plate was read at 570 nm using spectrophotometer (Spectra Max, Molecular devices).
For orientation: Tetrazolium assays rely on reduction of a dye to a coloured formazan, in cell work by metabolically active cells.

Series [2] relates to mice. The series can be described thus: Adenosine mediated bronchoconstriction and lung inflammation in an allergic mouse model. It counts as in vivo. Also on record: Total count: unit not given here. As to conditions: BAL fluid cells; 100 mg/kg oral. The protocol:
Thienopyridines were proven as potent cytotoxic and anti-inflammatory agents in the previous experimental results. In cytotoxic MTT assay, activity of these molecules may be due to the involvement of adenosine receptors. Further, to find the bronchodilatory activity of these moieties and to find the involvement of adenosine receptors in their action, non-invasive and invasive adenosine mediated bronchoconstriction and lung inflammation in an allergic mouse model was performed.
Male mice, 6-8 weeks of age, free of specific pathogens were obtained from National Institute of Nutrition. The animals were maintained on a ragweed-free diet. All experimental protocols used in this study were under a protocol approved by animal ethical committee. Sensitization was performed according to the modified procedure described by Fan et al, 2002. Mice were sensitized on days 1 and 6 with i.p. injections of ragweed allergen (200 μg/200 μl of water for injection). Non-sensitized control animals received only water for injection with the same volumes. Ten days after sensitization, the mice were placed in plexiglas chamber and challenged with 0.5% ragweed or with 0.9% saline as a control for twenty minutes both in the morning and evening for three days. Then mice were divided into different groups consisting of six animals each. The groups including a control without sensitization; a sensitized group and a standard group along with groups of the test molecules were separated. Twenty-four hours after last challenge with ragweed, the mice were given an oral dose of test molecules and theophylline (100 mg/kg body weight) as acacia suspension. Two hours after administration of the oral dose, the mice were challenged with adenosine solution (24 mg/ml). The variation in respiration was recorded after anaesthetizing them with pentobarbitone sodium (0.1 ml 200 mg/ml ip) using kymograph. Then, mice were sacrificed and trachea was cannulated to collect the bronchoalveolar lavage fluid. This was performed by pumping 1 ml phosphate buffered saline into lungs through tracheal cannula and collecting the sample. Analysis of BAL fluid was performed to get the cellular differentials. The BAL fluid was centrifugated at 1500 rpm for six minutes at room temparature. After removing the supernatant, BAL cells were resuspended in 1 ml of phosphate buffered saline. Total cells were then counted manually in a hemocytometer chamber. A differential count of at least 300 cells was made according to the standard morphologic criteria and results were mentioned in table.

In series [3] the test system is A549 (Lung cancer). Briefly: MTT assay, A549. It counts as cell-based. As to conditions: Homo sapiens, A549; MTT, 48 hrs; read-out: A549 IC50. As for the experimental part: as §1, §2
In series [4] the test system is Wistar rats. The series can be described thus: Carrageenan induced paw edema model. It counts as in vivo, rat. As to conditions: Rattus norvegicus, test compounds 100 mg/kg oral, Indomethacin 10 mg/kg oral, 3 hrs after Carrageenan. The protocol:
Male Albino Wistar rats of 150-180 grams were used for the experiments.
Anti-inflammatory activity of test compounds was evaluated in Wistar rats employing the method of Winter et al (1963) and Diwan et al (1989). Male Wistar rats were used for the study. […] The different test compounds were administered to the animals in the test group at the dose of 100 mg/kg, by oral route. Animals in the standard group received Indomethacin at the dose of 10 mg/kg, by oral route. All test and standard compounds were administered as 1% gum acacia suspension. Rats in the control group received the vehicle solution without drugs. One hour after test drugs administration, rats in all the groups were challenged with 0.1 ml of 1% Carrageenan in the sub plantar region of right hind paw. A zero hour paw volume was measured for all the rats using digital plethysmometer (Ugo Basile, Italy) before the administration of carrageenan for all groups. Paw volumes were again measured 3 hrs after the challenge of Carrageenan. The percent inhibition of paw volume for each rat in treated groups was calculated by comparing with mean paw volume of control group and expressed as mean (±SE) percent inhibition of paw volume for each test. In a preliminary study the compounds that have shown good activity were evaluated for dose response study by using above procedure.

Series [5] relates to crude intestinal α-glucosidase. Briefly: In-vitro mammalian (rat intestinal) α-glucosidase inhibition assay. The format is biochemical. From the text: Chemicals: α-Glucosidase [(EC 3.2.1.20) Type I: from bakers yeast], rat intestinal acetone powder (as a source of crude intestinal α-glucosidase), α-amylase [EC 3.2.1.1) Type VI B: from porcine pancreas], p-nitrophenyl α-D-glucopyranoside, 3,5-dinitro salicylic acid, soluble potato starch and 1-deoxyrojirimycine, were purchased from Sigma Chemical Co., St Louis, Mo., USA. Other chemicals of analytical grade were procured from indigenous manufacturers.
In-vitro a-Glucosidase Inhibition Assay: Yeast and intestinal a-glucosidase inhibitory activities were determined as per reported methods (Babu et al., 2004; Mc Dougall et al., 2005). Rat intestinal acetone powder in normal saline (100% w/v) was sonicated properly and the supernatant was used as a source of crude intestinal a-glucosidase after centrifugation. In brief, 20 μl, of test samples (100 mg/ml DMSO solution) were reconstituted in 100 μl of 100 mM-Phosphate buffer (pH 6.8) in a 96-well microplate and incubated with 50 μl yeast a-glucosidase (0.76 μ/ml in same buffer) or crude intestinal a-glucosidase for 5 min before 50-μl substrate (5 mM, […] prepared in same buffer) was added. Release of p-nitrophenyol was measured at 405 nm spectrophotometrically (Spectra Mas Plus 384, Molecular Device corporation, Sunnyvale, Calif., USA) 5 min after incubation with substrate, individual blank for test samples were prepared to correct background absorbance where the substrate was replaced with 50 μl of buffer. The control sample contained 20 μl DMSO in place of test samples. The percentage of enzyme inhibition was calculated as (A−B/A)×100 where A is represents the absorbance of the control without test samples, and B represents the absorbance in the presence of test samples. […] The IC50 values were calculated by applying logarithmic regression analysis from the mean inhibitory values.

Series [6] deals with A431 (Skin cancer) cell lines. The series can be described thus: MTT assay, A431. The note with it: Homo sapiens, A-431; MTT, 48 hrs; read-out: A431 cell lines IC50. The format is cell-based. As for the experimental part:
as §1, §2

Values after ≈ are worked out from the molar mass of the structure shown.

`Cc1sc2nc3c(c(N)c2c1C)CCC(C)C3` (stereo not drawn) [BN-3, 2,3,7-Trimethyl-5,6,7,8-tetrahydrothieno[2,3-b]quinolin-4-amine]: the melting point came to 220 °C. Also, the IC50 in series [1] worked out at 100 µg/mL (≈ 406 µM). Moreover, in series [2], the “Differential count (%) Eosinophils” value was found to be 14%, the “Differential count (%) Lymphocytes” value turned out to be 75%, the “Differential count (%) Monocytes” value came to 15% and the Total count is reported as 14.5. Further, the concentration for half-maximal inhibition (IC50) in series [3] worked out at 43.6 µg/mL (≈ 177 µM). Besides, in series [4] (read-out: % Increase in Paw Volume), the change in vivo at 100 mg/kg stood at 81.4 ± 21%. In addition, in series [4] (read-out: % Inhibition (paw volume)), the inhibition in vivo at 100 mg/kg is 23.2 ± 5.15%. Moreover, the “Mammalian α-glucosidase inhibitory activity (in words)” value in series [5] is “moderate inhibitory activity”. Moreover, in series [5] (highest concentration 5 mg/ml), the “Mammalian α Glucosidase Inhibition (Mean ± S.E)” value was 46.07 ± 0.9%. In series [6], the IC50 was 33.8 µg/mL (≈ 137 µM).

Usually IC50 stands for the concentration at which inhibition is half-maximal. A word on the melting point: it is the temperature, or range, at which the solid turns liquid.

Source of the values: patent US20110269790A1, “NOVEL THIENOPYRIDINES AS PHARMACOLOGICALLY ACTIVE AGENTS” (priority 2009, published 2011).
